{"source": "patent EP1614416A2", "about": "“Method for treating amyloidosis” (QUEEN'S UNIVERSITY AT KINGSTON, priority 1993, dated 1994)", "assay_type_in_all_cases": "in vivo, mice", "key": {"amyloid deposition": {"test_system": "amyloid deposition", "assay": "Acute amyloidosis (AgNO3 + AEF), oral sulfonated lower aliphatics, visual examination of spleen sections, Experiment 8", "details": "50 µM in drinking water, six days; preliminary visual analysis of spleen sections", "method": "Acute amyloidosis was elicited in mice with AgNO3 and amyloid enhancing factor as described in Experiment 2. Twenty-four hours later, the animals were divided into a control group and six test groups. The control group was maintained on standard laboratory mouse chow and tap water ad. lib. The test groups received standard chow but their water contained 50 µM of one of the following six compounds: ethanesulfonic acid sodium salt, 2-amino-ethanesulfonic acid sodium salt (taurine), propane-1-sulfonic acid sodium salt, ethane-1,2-disulfonic acid sodium salt, propane-1,3-disulfonic acid sodium salt, or butane-1,4-disulfonic acid sodium salt. Water intake was approximately equivalent for all groups. After six days, the animals were sacrificed and their spleens were processed as described for Experiment 2. For preliminary analysis, the spleen sections were examined visually under a microscope for differences in amyloid deposition in the treated animals versus the control animals."}, "[1]": {"test_system": "AA amyloid deposition in mouse spleen", "assay": "Acute AA amyloidosis mouse model (AgNO3 + AEF), intraperitoneal treatment, Experiment 1", "details": "36.5 mg/injection IP every 8 hours, mean ± S.E.M., n = 5, untreated 7.8, p ≤ 0.02, immunostained sections, image analysis", "method": "(§1) In the following experiments, a well-characterized mouse model of amyloidosis was used. In this in vivo system, animals receive an inflammatory stimulus and amyloid enhancing factor. For acute amyloidosis (i.e., short term amyloid deposition), the inflammatory stimulus is AgNO3. For chronic amyloidosis (ongoing amyloid deposition), the inflammatory stimulus is lipopolysaccharide (LPS). Amyloid deposition (AA amyloid) in the spleens of mice was measured with and without therapeutic treatment.\nAll mice were of the CD strain (Charles Rivers, Montreal, Quebec) and weighing 25-30 g. […]\nAt the termination of the experiments, the animals were sacrificed by cervical dislocation and the spleens, livers, and kidneys were fixed in 96% ethanol, 1% glacial acetic acid and 3% water as described in Lyon, A.W. et al. (\"Co-deposition of Basement Membrane Components During the Induction of Murine Splenic AA Amyloid\" Lab. Invest. 64:785-790 (1991)). […] The histologic sections viewed under polarized light were assessed by image analysis for the percent of spleen occupied by amyloid. In the case of the experiments with sucrose octasulfate, the tissues were immunostained with an antibody to the SAA protein (described in Lyon A.W. et al. Lab Invest. 64:785-790 (1991)) and the immunostained sections assessed by image analysis for the percent of tissue section occupied by amyloid."}, "[2]": {"assay": "Viability of animals under intraperitoneal therapy, Experiment 1", "method": "All animals received AgNO3 (0.5 ml, 2% solution) subcutaneously in the back, and amyloid enhancing factor (AEF) 100 µg intravenously. The preparation of amyloid enhancing factor has been described previously in Axelrad, M.A. et al. (\"Further Characterization of Amyloid Enhancing Factor\" Lab. Invest. 47:139-146 (1982)). The animals were divided into several groups one of which was an untreated control group which was sacrificed six days later. The remaining animals were divided into those which received poly(vinyl sulfonic acid sodium salt) (PVS) at 50 mg, 40 mg, 20 mg, or 10mg by intraperitoneal injection every 12 hours or sucrose octasulfate ammonium salt (SOA) at 73 mg or 36.5 mg every 8 hours by IP injection. Surviving animals were sacrificed on the 5th day of treatment. In all cases the PVS or SOA was dissolved in a sterile aqueous carrier.\nAll control animals survived the experiment without incident. […] Animals receiving 36.5 mg of sucrose octasulfate/injection all survived. […] In all cases of animal deaths prior to the end of the experiments, the cause of death was uncontrolled intraperitoneal hemorrhage.\nIntraperitoneal injection was selected as providing a large membrane surface for ease of access to the circulating system. […]"}, "[3]": {"test_system": "AA splenic amyloid deposition", "assay": "Chronic amyloidosis (LPS + AEF, inflammatory stimulus maintained), oral treatment from day 7, Experiments 5 and 6", "method": "as §1\nTo maintain the inflammation and the blood SAA levels, and allow amyloid to be continuously deposited for the duration of a longer term experiment, the nature of the inflammatory stimulus was changed. So as to maintain the inflammation, animals received lipopolysaccharide (LPS, 20 µg)+ AEF on day 0 and LPS was given by intraperitoneal injection every 2nd day. On day seven (7), the animals were separated into two groups as described in Experiment 4. Assessment of amyloid over the course of the experiment proceeded as described in Experiment 4. The control group (triangles) continued to deposit amyloid for the entire 17 day period. Those receiving PVS apparently stopped depositing amyloid by day 14 (open circles and dashed line). The data on day 17 represent 4 animals per group as one animal was omitted from this time period. The quantity of amyloid in this particular individual was so far removed from all other data points (treated or not, it was 21%) that it is believed that this was a statistically valid procedure. If this individual is included, the curve is represented by the dotted line and the remaining open circle. It should be pointed out that animals receiving PVS began to develop a significant diarrhea as the experiment proceeded.\nIn this experiment, another sulfonated compound, ethane monosulfate was used to inhibit amyloidosis. Ethane monosulfonate, sodium salt, (EMS) is structurally the monomeric unit of PVS. Animals were given LPS + AEF as in Experiment 5, but on day seven EMS was used in the drinking water as the therapeutic agent. […]"}}, "note": "Where a name gives a salt, the structure may show the parent alone.", "data": [{"compound": "NCCS(=O)(=O)[O-].[Na+]", "note": "[taurine sodium salt, 2-amino-ethanesulfonic acid sodium salt]", "values": [{"measurement": "amyloid deposition versus control animals", "setting": "amyloid deposition", "result": "not observed to have less amyloid deposition than control animals"}]}, {"compound": "O=S(=O)([O-])CCCCS(=O)(=O)[O-].[Na+].[Na+]", "note": "[butane-1,4-disulfonic acid sodium salt]", "values": [{"measurement": "amyloid deposition versus control animals", "setting": "amyloid deposition", "result": "not observed to have less amyloid deposition than control animals"}]}, {"compound": "N.N.N.N.N.N.N.N.O=S(=O)(O)OC[C@H]1O[C@@](COS(=O)(=O)O)(O[C@H]2O[C@H](COS(=O)(=O)O)[C@@H](OS(=O)(=O)O)[C@H](OS(=O)(=O)O)[C@H]2OS(=O)(=O)O)[C@@H](OS(=O)(=O)O)[C@@H]1OS(=O)(=O)O", "note": "[sucrose octasulfate, sucrose octasulfate ammonium salt]", "values": [{"measurement": "% Area Occupied by Amyloid", "setting": "[1]; ammonium salt", "result": "3.2% ± 0.5%"}, {"measurement": "% Area Occupied by Amyloid", "setting": "[1]; listed as Sucrose OctaSO4, ammonium salt", "result": "3.2 ± 0.5", "unit": "%"}, {"measurement": "viability of animals", "setting": "[2]; 36.5 mg/injection IP every 8 hours", "result": "all survived"}, {"measurement": "viability of animals", "setting": "[2]; 73 mg/injection IP every 8 hours, cause of death intraperitoneal hemorrhage", "result": "succumbed prior to the termination of the experiment"}]}, {"compound": "O=S(=O)([O-])CCS(=O)(=O)[O-].[Na+].[Na+]", "note": "[ethane-1,2-disulfonic acid sodium salt]", "values": [{"measurement": "amyloid deposition versus control animals", "setting": "amyloid deposition", "result": "less amyloid deposition than control animals"}]}, {"compound": "CCS(=O)(=O)O", "note": "[EMS, Ethane monosulfonate, sodium salt]", "values": [{"measurement": "amyloid deposition versus control animals", "setting": "amyloid deposition", "result": "not observed to have less amyloid deposition than control animals"}, {"measurement": "course of splenic amyloid deposition (Figure 8)", "setting": "[3]; 6 mg/ml EMS in drinking water from day 7", "result": "stopped depositing amyloid after day 14"}, {"measurement": "gastrointestinal side effect", "setting": "[3]; EMS 2.5 or 6 mg/ml in drinking water", "result": "did not develop gastrointestinal problems"}, {"measurement": "inhibition of chronic amyloid deposition", "setting": "[3]; restated in Experiment 8 with reference to Experiment 6", "result": "has been observed to inhibit chronic amyloid deposition"}]}, {"compound": "CCCS(=O)(=O)[O-].[Na+]", "note": "[propane-1-sulfonic acid sodium salt]", "values": [{"measurement": "amyloid deposition versus control animals", "setting": "amyloid deposition", "result": "less amyloid deposition than control animals"}]}, {"compound": "O=S(=O)([O-])CCCS(=O)(=O)[O-].[Na+].[Na+]", "note": "[propane-1,3-disulfonic acid sodium salt]", "values": [{"measurement": "amyloid deposition versus control animals", "setting": "amyloid deposition", "result": "less amyloid deposition than control animals"}]}]}
